Experimental data: ChEMBL document CHEMBL1150949, “Antimalarial principles from Artemisia indica” (J Nat Prod, 1998)

system: Plasmodium falciparum; test: Antimalarial activity against Plasmodium falciparum K1 by [3H]hypoxanthine uptake; format: functional, organism-based

Row | EC50 | SMILES
1 | 100 µM | Oc1ccc(-c2cc3cc4c(cc3o2)OCO4)c(O)c1
2 | 165 µM | Oc1ccc2c(c1)OC[C@@H]1c3cc4c(cc3O[C@H]21)OCO4 [(+)-MAACKIAIN]
3 | 4.2 µg/mL | COc1c(Cc2ccccc2O)c(O)c(Cc2ccccc2O)c(O)c1C(=O)CCc1ccccc1 [DIUVARETIN]
4 | 10.8 µM | C=C(C)[C@H](CC=C(C)C)Cc1c(O)cc(O)c2c1O[C@H](c1c(O)cccc1O)CC2=O [EXIGUAFLAVONE A]
5 | 16 µM | C=C(C)[C@H](CC=C(C)C)Cc1c(OC)cc(O)c2c1O[C@H](c1c(O)cccc1O)CC2=O [EXIGUAFLAVONE B]
6 | 3.49 µg/mL | COc1cc(O)c(Cc2ccccc2O)c(O)c1C(=O)CCc1ccccc1 [UVARETIN]
